The term Km denotes the concentration of substrate that gives half-maximal velocity. For orientation: EC50 means the concentration needed to bring the measured effect to its halfway point. Usually IC50 stands for the midpoint of a concentration-inhibition curve. The term Kd denotes a measure of binding affinity in units of concentration.

The values that follow come from paper PMC11188199, “Development and validation of a generic methyltransferase enzymatic assay based on an SAH riboswitch” (SLAS discovery : advancing life sciences R & D, 2024).

The subject of one data set is METTL3/METTL14. The note with it: cited from earlier work.
Data set [1] deals with T1, nsp14 (Severe acute respiratory syndrome coronavirus 2, UniProt P0DTD1). Particulars: read-out: SAM Km; cited from earlier work.
In the next data set the target is Dar-1 split aptamer. The data set can be described thus: Split aptamer SAH assay with TR-FRET readout (AptaFluor), equilibrium binding. Particulars: for EC50: n = 3, plates read at 3 hr. On the set-up: species or system D. aromatica. (In general: TR-FRET usually uses a lanthanide donor and a delayed reading to cut background.)
The next data set deals with SAH riboswitches. Details: method as in PMID 18374645. The note with it: native SAH riboswitch; cited from earlier work.
Data set [2] concerns the target T1, nsp14.
For data set [3], the system named is C[S+](CC[C@H](N)C(=O)[O-])C[C@H]1O[C@@H](n2cnc3c(N)ncnc32)[C@H](O)[C@@H]1O. The data set can be described thus: purified protein, by the assay type. Particulars: other: data not shown.
The test system of data set [4] is PRMT5. On the set-up: method as in PMID 25915199. The note with it: read-out: IC50 (published value); cited from earlier work.
Data set [5] addresses PRMT5. On the set-up: method as in PMID 34583982. The note with it: RapidFire MS SAH detection; read-out: kiApp; cited from earlier work.
Data set [6] deals with split Dar-1 riboswitch (Dar1 P1/P2). Kind of data set: Split aptamer SAH assay with FP readout. It is filed as binding, D. aromatica. The text has this:
Based on a literature review and preliminary testing, an SAH riboswitch from D. aromatica (Dar-1) was chosen for development of a split aptamer-based assay. […] We tested these configurations with a far red fluor on the shorter P2 element, allowing FP-based detection (Fig. 1A). […] Generally, a shift of at least 100 mP @ ≤ 10 % substrate conversion is desirable for HTS. It is likely that the FP signal is limited by the relatively modest difference in size between the free P2 RNA and the liganded P1–P2 complex. In this regard, attachment of one half of a split DNA aptamer to a silver nanoparticle produced a lactoferrin sensor with a signal greater than 100 mP [32]; to our knowledge, this is the only other example of a split aptamer-based assay with an FP readout. Attempts to use a similar approach by attaching Streptavidin to the P1 oligomer were not successful (data not shown).
Fig. 1. Split aptamer SAH assay with FP readout. A. SAH dependent assembly of split aptamer (Dar1 P1/P2) causes increase in polarization of a fluor attached to the P2 element. B. SAH titration, showing concentration dependence and stability of signal. C. Comparison of response to SAH, SAM and ATP. D. Standard curve mimicking enzymatic conversion of 200 nM SAM to SAH. E. Titration of PRMT3 in the presence of 500 nM SAM and Histone H4 peptide substrate. […]

Consider `C[S+](CC[C@H](N)C(=O)[O-])C[C@H]1O[C@@H](n2cnc3c(N)ncnc32)[C@H](O)[C@@H]1O` (stereo partly shown) [SAM, S-adenosylmethionine], for which the Km in the data set on METTL3/METTL14 (ssRNA substrate similar to the 28mer, read-out: SAM Km) was approximately 0.2 µM; at nsp14 [1], 0.257 µM. At Dar-1 split aptamer, this compound returned a concentration for a half-maximal effect (EC50) of 23 µM. Further, in the data set on SAH riboswitches, the “affinity fold lower than for SAH” value is “at least 1000 fold”.
As for `CC1(C)C(=O)N=C2C1=C(O)C(=O)c1ccccc12` [BVT-948], the “inhibition of nsp14 enzymatic activity in dose response mode” value against nsp14 [2] is on record as “dose-dependent response”.
For “nsp14 (Severe acute respiratory syndrome coronavirus 2)”, the Michaelis constant (Km) in data set [3] amounted to 0.06 µM.
Take `O=C1C(Cl)=C(NCCN2CCOCC2)C(=O)c2ncccc21` [NSC-663284]: the “inhibition of nsp14 enzymatic activity in dose response mode” value at nsp14 [2] is recorded as “dose-dependent response”.
With `CNc1cc(N2CCC3(CC2)CN(c2cc(F)c(CN4CCC(C)(C)CC4)cc2F)CC(=O)N3)ncn1` [UZH2, reference compound], the IC50 in the data set on METTL3/METTL14 (read-out: IC50 (published value)) was 0.005 µM.
On to `O=C(NC[C@H](O)CN1CCc2ccccc2C1)c1ccnc(NC2CCC2)c1` [GSK591], for which the half-inhibitory concentration (IC50) with PRMT5 [4] was 0.022 µM.
With `Nc1nc2cc(CC[C@H]3C[C@@H](n4ccc5c(N)ncnc54)[C@H](O)[C@@H]3O)ccc2cc1Br` [JNJ64619178], the Ki at PRMT5 [5] was 0.000772 µM.
`Nc1ncnc2c1ncn2[C@@H]1O[C@H](CO)[C@@H](O)[C@H]1O` [adenosine]: the 50% effective concentration (EC50) at Dar-1 split aptamer was 108 µM.
Turning to `Nc1ncnc2c1ncn2[C@@H]1O[C@H](CSCC[C@H](N)C(=O)O)[C@@H](O)[C@H]1O` [SAH, S-adenosylhomocysteine], the “observed selectivity (SAH vs SAM)” value with Dar-1 split aptamer (highly purified preparation of SAM) is reported as “more than 1000 fold”. Besides, the EC50 on Dar-1 split aptamer is 0.02 µM. For the same compound, in data set [6], the “selectivity vs. SAM” value was “greater than 200 fold”. Also, the Kd is 0.022 µM in [6] (split aptamer construct) and 0.02 µM on SAH riboswitches.
